In patent US20150374673A1, “Combination Therapy for the Treatment of Nosocomial Pneumonia” (priority 2013, published 2015):
Like-named read-outs stand apart in the source and are kept apart here.

Experiments:
E. cloacae = assay: Initial MIC, microbroth dilution (CLSI), avibactam 4 mg/L; type: cell-based
Text: (§1) All MIC determinations including those performed in the checkerboard assay were done in cation-adjusted Mueller-Hinton broth (purchased from Becton Dickinson, Oxford UK). […]

E. coli = assay: as above; type: cell-based
Text: as §1

E. faecalis = assay: as above; type: cell-based; conditions: Enterococcus faecalis
Text: as §1

S. aureus [1] = assay: as above; type: cell-based
Text: as §1

K. pneumoniae = assay: as above; type: cell-based
Method: (§2) All MIC determinations including those performed in the checkerboard assay were done in cation-adjusted Mueller-Hinton broth (purchased from Becton Dickinson, Oxford UK).
(§3) Initial MIC data were determined by microbroth dilution methods as recommended by CLSI (2012b). Checkerboards were made in accordance with the method given by Pillai et. al., ? Antimicrobial Combinations in Antibiotics, LABORATORY MEDICINE (Lorian Ed., 3rd Ed. (2003)) p. 365-440 as per standard microbroth dilution tests but with agents in combination. […] A final avibactam concentration of 4 mg/L was used throughout the study. Antibacterial agents were combined into microtitre plates using the Evolution III liquid handling system.

P. aeruginosa = assay: as above; type: cell-based
Method: as §2, §3

S. aureus [2] = assay: MIC, CLSI broth microdilution in CAMHB with 0-10% pulmonary surfactant (avibactam fixed at 4 μg/mL in combination); type: cell-based, Staphylococcus aureus; conditions: for MIC: Staphylococcus aureus, read-out: MIC
Method: The bacterial strains used in this testing were part of the microbiological culture collection housed at AstraZeneca R&D Boston (AstraZeneca Research Collection, designated ARC). The panel of bacterial isolates used for this testing was comprised of five CLSI QC reference strains and the remainder were either recent clinical isolates expressing β-lactamases or isolates from the primary bacterial screening panels.
MIC values were determined using the CLSI broth microdilution methodology with slight variation. Stock compound mother plates were prepared and used to spot 2 μL aliquots of serial 2-fold drug dilutions to columns 1-11 of 96-well daughter plates using a Perkin-Elmer MiniTrak™ MultiPosition dispenser. […] An inoculum volume of 100 μL (5×10E^5 CFU/mL) in CAMHB containing 0, 1, 2.5, 5, or 10% pulmonary surfactant was added using a multichannel Finnpipette® to each well of the 96-well plate.
The minimum inhibitory concentration (MIC) values against each organism/drug combination were determined using broth microdilution methodology according to CLSI guidelines. The recommended reference bacterial strains for each test group and reference compounds were incorporated into each test. For Gram-negatives, the reference bacterial strains were Escherichia coli ATCC 25922, E. coli ATCC 35218, Klebsiella pneumoniae ATCC 700603, and Pseudomonas aeruginosa ATCC 27853. Staphylococcus aureus ATCC 29213 was the reference bacterial strain for the Gram-positives.
MIC values for individual isolates were read visually. The MICs for each compound or combination in pulmonary surfactant was compared to the compound or combination tested in CAMHB alone.

Molecule: NC[C@H]1O[C@H](O[C@H]2[C@H](O)[C@@H](O[C@H]3O[C@H](CO)[C@@H](O)[C@H](N)[C@H]3O)[C@H](N)C[C@@H]2N)[C@H](N)C[C@@H]1O [Tobramycin]
- MIC (E. cloacae; Enterobacter cloacae, isolate 1 E. cloacae Basal MICs, read-out: MIC): 0.25 µg/mL
- MIC (E. cloacae; Enterobacter cloacae, isolate 2 E. cloacae Derepressed AmpC, read-out: MIC): 0.25 µg/mL
- MIC (E. cloacae; Enterobacter cloacae, isolate 3 E. cloacae Derepressed AmpC, read-out: MIC): 0.25 µg/mL
- MIC (E. coli; Escherichia coli, isolate 4 E. coli Basal MICs, read-out: MIC): 0.5 µg/mL
- MIC (E. coli; Escherichia coli, isolate 5 E. coli CTX-M-15, read-out: MIC): 64 µg/mL
- MIC (E. coli; Escherichia coli, isolate 6 E. coli TEM-4, read-out: MIC): 1 µg/mL
- MIC (E. coli; Escherichia coli, isolate 7 E. coli SHV-12, read-out: MIC): 1 µg/mL
- MIC (E. coli; Escherichia coli, isolate 8 E. coli SHV-2, read-out: MIC): 64 µg/mL
- MIC (E. faecalis; isolate 25 E. faecalis Basal MICs, read-out: MIC): 16 µg/mL
- MIC (E. faecalis; isolate 26 E. faecalis Basal MICs, read-out: MIC): 16 µg/mL
- MIC (E. faecalis; isolate 27 E. faecalis Basal MICs, read-out: MIC): 8 µg/mL
- MIC (S. aureus [1]; Staphylococcus aureus, isolate 22 S. aureus Basal MICs, read-out: MIC): 0.25 µg/mL
- MIC (S. aureus [1]; Staphylococcus aureus, isolate 23 S. aureus Basal MICs, Penicillinase+, read-out: MIC): 0.5 µg/mL
- MIC (S. aureus [1]; Staphylococcus aureus, isolate 24 S. aureus Basal MICs, Penicillinase+, read-out: MIC): 0.25 µg/mL
- MIC (K. pneumoniae; Klebsiella pneumoniae, isolate 9 K. pneumoniae Basal MICs, read-out: MIC): 0.25 µg/mL
- MIC (K. pneumoniae; Klebsiella pneumoniae, isolate 10 K. pneumoniae TEM-4, read-out: MIC): 4 µg/mL
- MIC (K. pneumoniae; Klebsiella pneumoniae, isolate 11 K. pneumoniae CTX-M-15, read-out: MIC): 0.25 µg/mL
- MIC (K. pneumoniae; Klebsiella pneumoniae, isolate 12 K. pneumoniae SHV-12, read-out: MIC): 0.25 µg/mL
- MIC (K. pneumoniae; Klebsiella pneumoniae, isolate 13 K. pneumoniae KPC-3, read-out: MIC): 0.25 µg/mL
- MIC (K. pneumoniae; Klebsiella pneumoniae, isolate 14 K. pneumoniae KPC-3, read-out: MIC): 8 µg/mL
- MIC (K. pneumoniae; Klebsiella pneumoniae, isolate 15 K. pneumoniae KPC-2, read-out: MIC): 0.12 µg/mL
- MIC (P. aeruginosa; Pseudomonas aeruginosa, isolate 16 P. aeruginosa Basal MICs, read-out: MIC): 0.25 µg/mL
- MIC (P. aeruginosa; Pseudomonas aeruginosa, isolate 17 P. aeruginosa Derepressed AmpC, read-out: MIC): 0.5 µg/mL
- MIC (P. aeruginosa; Pseudomonas aeruginosa, isolate 18 P. aeruginosa Derepressed AmpC, read-out: MIC): 0.5 µg/mL
- MIC (P. aeruginosa; Pseudomonas aeruginosa, isolate 19 P. aeruginosa PER, read-out: MIC): 1 µg/mL
- MIC (P. aeruginosa; Pseudomonas aeruginosa, isolate 20 P. aeruginosa KPC-2, read-out: MIC): 256 µg/mL
- MIC (P. aeruginosa; Pseudomonas aeruginosa, isolate 21 P. aeruginosa KPC-2, read-out: MIC): 8 µg/mL

Molecule: CN[C@H](CC(C)C)C(=O)N[C@H]1C(=O)N[C@@H](CC(N)=O)C(=O)N[C@H]2C(=O)N[C@H]3C(=O)N[C@H](C(=O)N[C@H](C(=O)O)c4cc(O)cc(O)c4-c4cc3ccc4O)[C@H](O)c3ccc(c(Cl)c3)Oc3cc2cc(c3O[C@@H]2O[C@H](CO)[C@@H](O)[C@H](O)[C@H]2O[C@H]2C[C@](C)(N)[C@H](O)[C@H](C)O2)Oc2ccc(cc2Cl)[C@H]1O [Vancomycin]
- MIC (E. faecalis; isolate 25 E. faecalis Basal MICs): 1 µg/mL
- MIC (E. faecalis; isolate 26 E. faecalis Basal MICs): 2 µg/mL
- MIC (E. faecalis; isolate 27 E. faecalis Basal MICs): 2 µg/mL
- MIC (S. aureus [1]; Staphylococcus aureus): 1 µg/mL
- MIC (S. aureus [1]; isolate 23 S. aureus Basal MICs, Penicillinase+): 1 µg/mL
- MIC (S. aureus [1]; isolate 24 S. aureus Basal MICs, Penicillinase+): 1 µg/mL

Molecule: CCCCCCCCCC(=O)N[C@@H](Cc1c[nH]c2ccccc12)C(=O)N[C@H](CC(N)=O)C(=O)N[C@@H](CC(=O)O)C(=O)N[C@@H]1C(=O)NCC(=O)N[C@@H](CCCN)C(=O)N[C@@H](CC(=O)O)C(=O)N[C@H](C)C(=O)N[C@@H](CC(=O)O)C(=O)NCC(=O)N[C@H](CO)C(=O)N[C@@H]([C@H](C)CC(=O)O)C(=O)N[C@@H](CC(=O)c2ccccc2N)C(=O)O[C@@H]1C [daptomycin]
- MIC increase in pulmonary surfactant (S. aureus [2]; S. aureus, 1% pulmonary surfactant): 32 fold
- MIC (S. aureus [2]; ATCC29213, S. aureus ARC12 (CLSI QC strain, ATCC 29213), surfactant 0%): 0.5 µg/mL
- MIC (S. aureus [2]; ATCC29213, S. aureus ARC12 (CLSI QC strain, ATCC 29213), surfactant 1%): 16 µg/mL
- MIC (S. aureus [2]; ATCC29213, S. aureus ARC12 (CLSI QC strain, ATCC 29213), surfactant 2.5%): 64 µg/mL
- MIC (S. aureus [2]; ATCC29213, S. aureus ARC12 (CLSI QC strain, ATCC 29213), surfactant 5%): > 64 µg/mL
- MIC (S. aureus [2]; ATCC29213, S. aureus ARC12 (CLSI QC strain, ATCC 29213), surfactant 10%): 64 µg/mL
- MIC (S. aureus [2]; MRSA, S. aureus ARC516 (MRSA, quinolone-resistant), surfactant 0%): 0.5 µg/mL
- MIC (S. aureus [2]; MRSA, S. aureus ARC516 (MRSA, quinolone-resistant), surfactant 1%): 16 µg/mL
- MIC (S. aureus [2]; MRSA, S. aureus ARC516 (MRSA, quinolone-resistant), surfactant 2.5%): 64 µg/mL
- MIC (S. aureus [2]; MRSA, S. aureus ARC516 (MRSA, quinolone-resistant), surfactant 5%): > 64 µg/mL
- MIC (S. aureus [2]; MRSA, S. aureus ARC516 (MRSA, quinolone-resistant), surfactant 10%): > 64 µg/mL

Molecule: Colistin
- MIC (E. cloacae; isolate 1 E. cloacae Basal MICs): 0.25 µg/mL
- MIC (E. cloacae; isolate 2 E. cloacae Derepressed AmpC): 0.25 µg/mL
- MIC (E. cloacae; isolate 3 E. cloacae Derepressed AmpC): 0.25 µg/mL
- MIC (E. coli; isolate 4 E. coli Basal MICs): 0.25 µg/mL
- MIC (E. coli; isolate 5 E. coli CTX-M-15): 0.5 µg/mL
- MIC (E. coli; isolate 6 E. coli TEM-4): 0.25 µg/mL
- MIC (E. coli; isolate 7 E. coli SHV-12): 0.5 µg/mL
- MIC (E. coli; isolate 8 E. coli SHV-2): 0.25 µg/mL
- MIC (K. pneumoniae; isolate 9 K. pneumoniae Basal MICs): 0.25 µg/mL
- MIC (K. pneumoniae; isolate 10 K. pneumoniae TEM-4): 0.5 µg/mL
- MIC (K. pneumoniae; isolate 11 K. pneumoniae CTX-M-15): 0.25 µg/mL
- MIC (K. pneumoniae; isolate 12 K. pneumoniae SHV-12): 0.25 µg/mL
- MIC (K. pneumoniae; isolate 13 K. pneumoniae KPC-3): 0.25 µg/mL
- MIC (K. pneumoniae; isolate 14 K. pneumoniae KPC-3): 0.25 µg/mL
- MIC (K. pneumoniae; isolate 15 K. pneumoniae KPC-2): 0.25 µg/mL
- MIC (P. aeruginosa; isolate 16 P. aeruginosa Basal MICs): 1 µg/mL
- MIC (P. aeruginosa; isolate 17 P. aeruginosa Derepressed AmpC): 0.5 µg/mL
- MIC (P. aeruginosa; isolate 18 P. aeruginosa Derepressed AmpC): 1 µg/mL
- MIC (P. aeruginosa; isolate 19 P. aeruginosa PER): 1 µg/mL
- MIC (P. aeruginosa; isolate 20 P. aeruginosa KPC-2): 1 µg/mL
- MIC (P. aeruginosa; isolate 21 P. aeruginosa KPC-2): 2 µg/mL
